What was measured:
[1] = tested on: progesterone-induced endometrial proliferation; test: AntiClauberg test; type: in vivo, rabbit; conditions: oral; for BIOLOGICAL ACTIVITY antiClauberg: Table 2, CDB-2914 = 100 (assigned); for antiClauberg / oral antiprogestational activity, in words: versus the standard 69B
Description: AntiClauberg Test (Clauberg, C., Zentr. Gynakol., 54:2757-2770 (1930)) Immature female rabbits of the New Zealand White breed (approx. 1 kg body weight) were maintained under standard laboratory conditions and received a subcutaneous injection of 5 μg estradiol in 10% ethanol/sesame oil daily for 6 consecutive days. Twenty-four hours after the last dose of estradiol (day 7) animals received progesterone by subcutaneous injection (0.8 mg/day) and the experimental compound in appropriate vehicle (usually 10% ethanol/sesame oil) orally or subcutaneously for five consecutive days. One group of rabbits received progesterone only. Twenty-four hours after the last dose all animals were sacrificed for removal of the uterus which was cleaned of all fat and connective tissue, weighed to the nearest 0.2 mg and placed in 10% neutral buffered formalin for subsequent histological processing. Five micron sections stained with hematoxylin and eosin (H&E) were evaluated microscopically for the degree of endometrial glandular proliferation according to the method of McPhail (McPhail, supra). The percent inhibition of endometrial proliferation at each dose level of the experimental compound was derived by comparison with the progesterone-stimulated animals alone.

[2] = target: T1, progesterone receptor (estrogen-primed rabbit uterus) (Oryctolagus cuniculus, UniProt P06186); test: Relative binding affinity, progesterone receptor; conditions: for BINDING AFFINITY Progester: Table 2, estrogen-primed rabbit uterus, progesterone = 100%; for binding affinities compared with the standard, compound 69B: progesterone receptor implied (rabbit or human isoform A not specified)
T1 construct: preparation of cytosols for the progesterone and glucocorticoid receptor assays; from tissue; host or cells: uterus of estradiol-primed immature female New Zealand White rabbits (cytosol)
T1 sequence (P06186 1-930): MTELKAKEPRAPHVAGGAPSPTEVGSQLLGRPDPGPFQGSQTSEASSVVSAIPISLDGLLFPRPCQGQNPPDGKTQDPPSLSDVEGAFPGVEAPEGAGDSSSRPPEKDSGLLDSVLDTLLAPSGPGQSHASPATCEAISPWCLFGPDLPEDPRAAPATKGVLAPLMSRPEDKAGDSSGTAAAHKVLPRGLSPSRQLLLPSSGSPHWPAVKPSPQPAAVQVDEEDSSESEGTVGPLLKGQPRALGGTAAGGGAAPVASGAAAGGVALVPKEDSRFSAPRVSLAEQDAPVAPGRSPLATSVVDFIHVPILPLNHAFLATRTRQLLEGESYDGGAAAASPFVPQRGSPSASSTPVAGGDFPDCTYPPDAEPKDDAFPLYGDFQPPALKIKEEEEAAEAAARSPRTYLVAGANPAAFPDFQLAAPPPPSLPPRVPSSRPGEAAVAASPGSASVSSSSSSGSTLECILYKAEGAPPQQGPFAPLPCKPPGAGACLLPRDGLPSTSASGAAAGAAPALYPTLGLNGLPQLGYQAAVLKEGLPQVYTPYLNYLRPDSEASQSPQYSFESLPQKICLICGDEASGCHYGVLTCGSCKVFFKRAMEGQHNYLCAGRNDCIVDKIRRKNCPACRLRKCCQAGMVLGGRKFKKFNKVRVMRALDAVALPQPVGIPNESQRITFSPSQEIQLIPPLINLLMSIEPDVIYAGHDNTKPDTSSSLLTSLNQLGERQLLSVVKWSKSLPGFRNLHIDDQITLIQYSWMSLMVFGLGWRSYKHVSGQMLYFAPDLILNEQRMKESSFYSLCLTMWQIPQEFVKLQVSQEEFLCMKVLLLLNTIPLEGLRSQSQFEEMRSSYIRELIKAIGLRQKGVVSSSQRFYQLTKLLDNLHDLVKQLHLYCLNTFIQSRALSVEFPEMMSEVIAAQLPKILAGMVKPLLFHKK
Description: (§1) Relative Binding Affinities for the Progesterone and Glucocorticoid Receptors
(§2) Uteri and thymus glands were obtained from estradiol-primed immature female rabbits of the New Zealand White strain for preparation of cytosols for the progesterone and glucocorticoid receptor assays, respectively. Tissues were excised and immediately placed in ice cold TEGDM buffer (10 mM Tris, pH 7.4; 1.5 mM EDTA; 10% glycerol vol/vol/; 1 mM dithiothreitol [DTT]; and 20 mM sodium molybdate). The tissues were dissected free of connective tissue and fat, weighed and minced finely. Minced tissues were homogenized in 3 volumes TEGDM/gm with four 10 second bursts of a VirTis Cyclone set at half maximum speed with a 30 second cooling period (in ice) between bursts. Homogenates were centrifuged at 109,663 g at 4° C. for 1 hour to yield the soluble cytosol fiction. Aliquots of cytosol were snap frozen and stored at −75° C.
(§3) All binding assays were carried out at 2-6° C. for 16-18 hours. The following radioactive ligands were used: [1,2-^3H(N)]-progesterone (50.0 Ci/mmole) for the progesterone receptor (PR). […] For the progesterone receptor RBA assays 0.02 ml uterine cytosol or TEDGM buffer, 0.05 ml of various concentrations of test compounds or progesterone, 0.13 ml TEGDM buffer and 0.05 ml [^3H]-progesterone were added to duplicate tubes. For the glucocorticoid receptor RBA assays 0.1 ml thymus cytosol or TEDGM buffer, 0.05 ml of various concentrations of test compounds or dexamethasone, 0.05 ml TEGDM buffer and 0.05 ml [3H]-dexamethasone were added to duplicate tubes. For the estrogen receptor RBA assays 0.05 ml uterine cytosol, 0.1 ml TEGDM buffer, 0.05 ml of various concentrations of test compounds or estradiol and 0.05 ml [^3H]-estradiol were added to duplicate tubes. The concentrations of the test compounds, progesterone, dexamethasone and estradiol ranged from 0.05 to 100 nM and the concentrations of the competitors ranged from 0.5 to 500 nM. Total binding was measured at radioligand concentrations of 3.5 nM and nonspecific binding was measured in the presence of a 200-fold excess of unlabeled progesterone (PR), dexamethasone (GR) or diethylstilbestrol (ER), respectively.
(§4) In all incubations bound and free ligand were separated using dextra-coated charcoal (DCC). A 0.1 ml aliquot of DCC (0.5% charcoal/0.05% Dextran T-70) was added to each tube. The tubes were vortexed and incubated on ice for 10 minutes. Five-tenths ml TEG buffer (without DTT or molybdate) was then added to all tubes to improve supernatant recovery following centrifugation. The charcoal was pelleted by centrifugation at 2,100 g for 15 minutes at 4° C. The supernatants containing the [^3H]-steroid receptor complexes were decanted into vials containing 4 ml Optifluor (Packard Instrument Co.), vortexed, equilibrated in a liquid scintillation counter for 30 minutes and then counted for 2 minutes. This provided the quantity of receptor bound [^3H]-steroid at each competitor concentration.

[3] = target: T2, glucocorticoid receptor (estrogen-primed rabbit thymus) (Oryctolagus cuniculus, UniProt P59667); test: Relative binding affinity, glucocorticoid receptor; conditions: Table 2; estrogen-primed rabbit thymus; dexamethasone = 100%
T2 construct: preparation of cytosols for the progesterone and glucocorticoid receptor assays; from tissue; host or cells: thymus of estradiol-primed immature female New Zealand White rabbits (cytosol)
T2 sequence (P59667 1-772): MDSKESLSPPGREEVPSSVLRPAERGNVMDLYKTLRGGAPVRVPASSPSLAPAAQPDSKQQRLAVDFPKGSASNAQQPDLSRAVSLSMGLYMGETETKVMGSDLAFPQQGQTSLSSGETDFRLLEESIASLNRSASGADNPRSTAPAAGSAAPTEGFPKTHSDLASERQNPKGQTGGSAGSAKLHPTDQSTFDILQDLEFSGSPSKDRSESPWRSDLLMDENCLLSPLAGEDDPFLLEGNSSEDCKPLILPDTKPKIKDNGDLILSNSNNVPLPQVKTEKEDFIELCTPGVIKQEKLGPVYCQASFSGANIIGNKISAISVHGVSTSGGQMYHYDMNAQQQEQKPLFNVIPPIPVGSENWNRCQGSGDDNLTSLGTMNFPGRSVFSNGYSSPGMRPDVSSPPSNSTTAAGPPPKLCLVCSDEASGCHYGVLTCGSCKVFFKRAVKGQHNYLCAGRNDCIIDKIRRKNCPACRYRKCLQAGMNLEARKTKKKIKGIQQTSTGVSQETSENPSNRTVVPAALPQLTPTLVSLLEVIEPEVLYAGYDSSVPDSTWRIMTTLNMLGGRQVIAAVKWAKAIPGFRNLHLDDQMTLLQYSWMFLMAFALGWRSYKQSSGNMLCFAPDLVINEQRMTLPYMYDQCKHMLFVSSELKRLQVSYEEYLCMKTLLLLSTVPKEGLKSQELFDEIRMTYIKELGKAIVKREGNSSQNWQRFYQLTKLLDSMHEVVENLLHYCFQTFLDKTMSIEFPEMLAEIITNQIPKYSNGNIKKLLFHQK
Description: as §1, §2, §3, §4

Which results are given for `CC(=O)O[C@]1(C(C)=O)CC[C@H]2[C@@H]3CCC4=CC(=O)CCC4=C3[C@@H](c3ccc(N4CCOCC4)cc3)C[C@@]21C` [Compound 72, 17α-Acetoxy-11β-[4-(N-Morpholino)phenyl]-19-norpregna-4,9-diene-3,20-dione]?
BIOLOGICAL ACTIVITY antiClauberg [1]: 35; BINDING AFFINITY Progester [2]: 109%; binding affinities compared with the standard, compound 69B [2]: binding affinities greater than that observed for the standard; BINDING AFFINITY Glucocortic [3]: 110%

`CSc1ccc([C@H]2C[C@@]3(C)[C@@H](CC[C@]3(OC(C)=O)C(C)=O)[C@@H]3CCC4=CC(=O)CCC4=C32)cc1` [Compound 74] was tested. Which “BIOLOGICAL ACTIVITY antiClauberg” value [1] did it give?
Its value is <10.

What about the “BINDING AFFINITY Progester” value [2] of the same compound?
Its value is 131%.

And the “BINDING AFFINITY Glucocortic” value [3]?
The value was 32%.

How did the “BIOLOGICAL ACTIVITY antiClauberg” value [1] turn out when `COCC1(C(C)=O)CCC2C3CCC4=CC(=O)CCC4=C3C(c3ccc(N(C)C)cc3)CC21C` (stereo not drawn) [Compound 91, 17α-Methoxymethyl-11β-[4-(N,N-methylamino)phenyl]-19-norpregna-4,9-diene-3,20-dione] was run?
Its value is “inactive”.

What about the “BINDING AFFINITY Progester” value [2] of the same compound?
The value was 171%.

And the “binding affinities compared with the standard, compound 69B” value [2]?
Its value is “binding affinities greater than that observed for the standard”.

And the “BINDING AFFINITY Glucocortic” value [3]?
Its value is 59%.

How did the “BIOLOGICAL ACTIVITY antiClauberg” value [1] turn out when `COC1(C(C)=O)CCC2C3CCC4=CC(=O)CCC4=C3C(c3ccc(N(C)C)cc3)CC21C` (stereo not drawn) [Compound 97a, 17α-Methoxy-11β-[4-(N,N-dimethylamino)phenyl]-19-norpregna-4,9-diene-3,20-dione] was run?
The value was 110.

What about the “antiClauberg / oral antiprogestational activity, in words” value [1] of the same compound?
The value was “greater activity than the standard”.

And the “BINDING AFFINITY Progester” value [2]?
Its value is 120%.

And the “binding affinities compared with the standard, compound 69B” value [2]?
Its value is “binding affinities greater than that observed for the standard”.

And the “BINDING AFFINITY Glucocortic” value [3]?
Its value is 52%.

`COC1(C(C)=O)CCC2C3CCC4=CC(=O)CCC4=C3C(c3ccc(N4CCCCC4)cc3)CC21C` (stereo not drawn) [Compound 97b, 17α-Methoxy-1-[4-(piperidino)phenyl]-19-norpregna-4,9-diene-3,20-dione] was tested. Which “BIOLOGICAL ACTIVITY antiClauberg” value [1] did it give?
The value was 99.

And the “BINDING AFFINITY Progester” value [2]?
The value was 47%.

What about the “BINDING AFFINITY Glucocortic” value [3] of the same compound?
The value was 38%.

`COCC(=O)C1(OC)CCC2C3CCC4=CC(=O)CCC4=C3C(c3ccc(N4CCCCC4)cc3)CC21C` (stereo not drawn) [Compound 113c, 17α,21-Dimethoxy-11β-[4-(N-piperidino)phenyl]-19-norpregna-4,9-diene-3,20-dione] was tested. Which “BIOLOGICAL ACTIVITY antiClauberg” value [1] did it give?
The value was 70.

What about the “BINDING AFFINITY Progester” value [2] of the same compound?
The value was 63%.

What about the “BINDING AFFINITY Glucocortic” value [3] of the same compound?
Its value is 45%.

How did the “BIOLOGICAL ACTIVITY antiClauberg” value [1] turn out when `COCC(=O)C1(OC(C)=O)CCC2C3CCC4=CC(=O)CCC4=C3C(c3ccc(C(C)=O)cc3)CC21C` (stereo not drawn) [Compound 123b, 17α-Acetoxy-11β-(4-acetylphenyl)-21-methoxy-19-norpregna-4,9-diene-3,20-dione] was run?
Its value is 77.

And the “BINDING AFFINITY Progester” value [2]?
The value was 64%.

And the “BINDING AFFINITY Glucocortic” value [3]?
Its value is 45%.

With `CCC(=O)OCC(=O)[C@@]1(OC(C)=O)CCC2C3CCC4=CC(=O)CCC4=C3C(c3ccc(N(C)C)cc3)C[C@@]21C` (stereo partly drawn) [Compound 126a, 17α-Acetoxy-11β-[4-(N,N-dimethylamino)phenyl]-21-propionyloxy-19-norpregna-4,9-diene-3,20-dione] as the compound, how does the “BIOLOGICAL ACTIVITY antiClauberg” value [1] read?
Its value is 170.

What about the “antiClauberg / oral antiprogestational activity, in words” value [1] of the same compound?
The value was “greater activity than the standard”.

And the “BINDING AFFINITY Progester” value [2]?
The value was 95%.

What about the “BINDING AFFINITY Glucocortic” value [3] of the same compound?
The value was 43%.

Which results are given for `COCC(=O)OCC(=O)[C@@]1(OC(C)=O)CC[C@H]2[C@@H]3CCC4=CC(=O)CCC4=C3[C@@H](c3ccc(N(C)C)cc3)C[C@@]21C` [Compound 126b]?
BIOLOGICAL ACTIVITY antiClauberg [1]: 125; antiClauberg / oral antiprogestational activity, in words [1]: greater activity than the standard; BINDING AFFINITY Progester [2]: 76%; BINDING AFFINITY Glucocortic [3]: 15%

Which results are given for `COC(=O)OCC(=O)C1(OC(C)=O)CCC2C3CCC4=CC(=O)CCC4=C3C(c3ccc(N(C)C)cc3)CC21C` (stereo not drawn) [Compound 126c, 17α-Acetoxy-21-hydroxy-11β-[4-(N,N-dimethylamino)phenyl]-19-norpregna-4,9-diene-3,20-dione-21-methyl carbonate]?
BIOLOGICAL ACTIVITY antiClauberg [1]: 224; antiClauberg / oral antiprogestational activity, in words [1]: greater activity than the standard; BINDING AFFINITY Progester [2]: 68%; BINDING AFFINITY Glucocortic [3]: 67%

Reference: US6900193B1, “Structural modification of 19-norprogesterone I: 17-α-substituted-11-β-substituted-4-aryl and 21-substituted 19-norpregnadienedione as new antiprogestational agents” (The United States of America as represented by the …, priority 1996, dated 2005)
